Consider seven compounds from paper PMC11280037, “Inhibition of Enzyme and Bacteria Activities in Diabetic Ulcer-like Scenarios via WAAPV-Loaded Electrospun Fibers” (Pharmaceutics, 2024).

Series [1] relates to Staphylococcus aureus ATCC 6538. It counts as cell-based. The following applies: ATCC 6538, 24 h. As to the method: Minimum inhibitory concentration (MIC) of both peptides and PEG was determined, against S. aureus and E. coli by the broth microdilution method, based on a publication by the Clinical and Laboratory Standards Institute (CLSI) and European Committee on Antimicrobial Susceptibility Testing (EUCAST). For this test, AAPV and WAAPV were dissolved in dH2O at a concentration of 4.096 mg/mL, whereas PEG was also diluted in dH2O at 10.240 mg/mL, working as stock solutions. […] Then, a bacterium suspension at 1 × 10^6 CFUs/mL was added to the wells. Controls consisting of MHB and bacteria suspensions free from any of the active agents were produced, representing the negative and positive control samples, respectively. Absorbance readings were conducted with an EZ Read 2000 Microplate Reader at 600 nm before (0 h) and 24 h after incubation at 37 °C at 120 rpm. MIC was then perceived by the differences between the several absorbance readings. Minimum bactericidal concentrations (MBCs) were established by the culture of the same bacterium suspensions at MIC and their vicinities (dilutions before and after MIC value). Aliquots were collected and diluted in PBS (10^−1–10^−4). Then, the aliquots were plated in TSA and incubated at 37 °C during 24 h, after which the grown colonies were observed and counted.

For series [2], the system named is human neutrophil elastase (HNE). Briefly: HNE inhibition by peptide-loaded electrospun fibers. It counts as biochemical. The following applies: AAPV from PCL electrospun fibers, PBS, 37 °C.
Series [3] relates to human neutrophil elastase (HNE; elastase from human leukocytes). Particulars: 1 h, 37 °C, 405 nm, n = 3, cited from earlier work. The procedure:
Table 1 Inhibition of HNE activity by AAPV [8] and WAAPV at varying concentrations (n = 3). | column: HNE Inhibition (%) / AAPV || AAPV presented its maximum inhibitory capacity at a concentration of 50 μg/mL, which is in accordance with previous research conducted by our team. According to Namjoshi et al., the ability of HNE to digest substrates decreases with increasing inhibitor concentrations. […] Suc ...

For series [4] the following is noted: cited from earlier work. The text has this:
Static contact angle measurements are a conventional method to determine the wettability of surfaces. This method involves assessing the angle formed between the solid surface, the liquid droplet, and the vapor phase at the three-phase contact point. […] Electrospun fibers unlo ...

Another series deals with bacteria. The following applies: effectiveness limited to concentrations over this; cited from earlier work. The source says: Despite its efficacy, the widespread pharmaceutical application of peptides faces obstacles, including limited stability in physiological settings and susceptibility to environmental factors. However, AAPV’s overall hydrophilicity (despite the presence of hydrophobic domains) tends to reduce its bioavailability and cellular tissue permeability. The attachment of hydrophobic carriers/molecules can overcome these limitations. Tryptophan (W) is an aromatic hydrophobic amino acid, which has been associated with the activation of antibacterial properties (disturbance of bacterial membra ...

In the next series the test system is S. aureus. The following applies: loaded at the core of co-axial microfibers; cited from earlier work. The procedure: From the very first moments of incubation, PEG-containing fibers were the ones reporting the highest bacterial inhibitions, a minimum of ≈30% against S. aureus and ≈40% against E. coli. […] In general, the highest ratings for peptide-induced inhibition (in many instances potentiated by PEG) were ...

For the next series, the system named is HNE. The following applies: AAPV from co-axial wet-spun microfibers; cited from earlier work. The procedure: During the first 6 h of incubation, nearly 10% of HNE was inhibited by the peptide released from the PCL fibers. This is consistent with the data from Figure 5 since, at this point, >50% of the peptide molecules have been released. In fact, in the absence of PEG, HNE inhibition reached its maximum at this stage, maintaining the levels of enzyme activity in a constant manner until the 24 h period. […] However, considering its hydrophobic nature and affinity towards PCL, it i ...

Series [5] is classed as physicochemical. As to the method:
Thermal responses of the fibers were assessed by a thermogravimetric analysis (TGA). Weight loss was monitored as the temperature increased from 25 to 600 °C at a heating rate of 10 °C/min under a dynamic nitrogen atmosphere with a flow rate of 200 mL/min, using an STA 7200 instrument (Hitachi®, Fukuoka, Japan) and aluminum pans. Results were plotted as the percentage of weight loss vs. temperature. Water contact angles were determined using an OCA 200 goniometer, Data Physics (Filderstadt, Germany), following an adaptation of the ASTM-[…]-08 standard. Droplets of 5.0 μL of dH2O, ejected at a rate of 2.0 μL/s, were used to measure the fibers' wettability via the sessile drop method. Six measurements were conducted per type of sample. Angles were recorded immediately after drop contact with the surface (≈10 s after contact).

The format of series [6] is physicochemical. The following applies: not told. As to the method:
The fibers’ capacity for air exchange (permeability) was examined according to standard ISO 9237 [24]. Air pressure of 200 Pa was applied on three samples of each typology in three randomly selected points of 1.33 cm^2 (1.30 cm diameter), and the permeability was measured. For determining the porosity (P%) of the samples [25], measurements of the amount of ethanol absorbed after 1 h of immersion in static conditions and RT (Equation (1)) were used:(1) P(%)=Ww−WD/ρEthanolVSample×100, where WW and WD are the weight of the wet and dry samples, respectively; ρethanol is the density of the ethanol at RT (0.789 g/cm^3); and Vsample is the volume of the wet sample, determined by measuring the 6 mm diameter samples’ thickness with a pachymeter. The experiment was performed in triplicate.

Read-outs that look alike come from different tables or passages of the source. Where a SMILES comes first, the peptide text is derived from it. Where no end group is shown, it is not given here.

In the case of WAAPV [WAAPV], in series [1], the minimum bactericidal concentration (MBC) – broadly, the lowest tested concentration that kills the bacteria rather than only halting them – came out at 2048 µg/mL and the MIC (as a rule, the lowest concentration that inhibits growth of the organism) turned out to be 2048 µg/mL.
On to `CC(C)[C@H](NC(=O)[C@@H]1CCCN1C(=O)[C@H](C)NC(=O)[C@H](C)N)C(=O)O` [AAPV, alanine–alanine–proline–valine] (H-AAPV-OH), for which the “time of maximum HNE inhibition” value in series [2] is given as 6 h; in the series on HNE, 24 h. In addition, the “HNE Inhibition” value in series [3] (AAPV 0.10 μg/mL) is listed as 0.79 ± 0.008%; in series [3] (AAPV 0.20 μg/mL), 2.37 ± 0.007%; in series [3] (AAPV 0.39 μg/mL) it was 3.43 ± 0.005%; in [3] (AAPV 0.78 μg/mL) it was 4.07 ± 0.004%; in series [3] (AAPV 1.56 μg/mL) it was 6.43 ± 0.005%; in [3] (AAPV 3.13 μg/mL) it was 8.07 ± 0.007%. For the same compound, the “HNE Inhibition” value in [3] (AAPV 6.25 μg/mL) was 8.84 ± 0.002%; in [3] (AAPV 12.50 μg/mL), 9.56 ± 0.011%; in series [3] (AAPV 25.00 μg/mL), 12.69 ± 0.002%; in series [3] (AAPV 50.00 μg/mL) it was 16.89 ± 0.010%; in series [3] (AAPV 100.00 μg/mL), 9.53 ± 0.010%; in series [3] (AAPV 200.00 μg/mL, substrate N-MeO-Suc-Ala-Ala-Pro-Val-p-NA, 0.1 M Tris-HCl, HNE 45 mU) it was 5.74 ± 0.010%. For the same compound, the “hydrophilicity of overall structure” value in [4] is given as “hydrophilic”. Further, the effective antimicrobial concentration result in the series with bacteria is given as “over 2 mg/mL”. Besides, the “S. aureus inhibitory activity” value in the series on S. aureus is listed as “found to potentiate this inhibitory activity against S. aureus”.
For H-WAAPV-OH, the main degradation step of free peptide amounted to 200 °C.
WAAPV [PCL + WAAPV]: in series [5], the “mass loss before main degradation step” value is on record as less than 4% and the “temperature at which (main) thermal degradation starts” value (shortened to “temperature at which”) was “≈ 365 °C”.
In the case of `CC(C)[C@H](NC(=O)[C@@H]1CCCN1C(=O)[C@H](C)NC(=O)[C@H](C)N)C(=O)O` [PCL + AAPV] (H-AAPV-OH), in series [5], the “mass loss before main degradation step” value is on record as approximately 8% and the “temperature at which” value was “≈ 335 °C”.
`CC(C)[C@H](NC(=O)[C@@H]1CCCN1C(=O)[C@H](C)NC(=O)[C@H](C)N)C(=O)O` (H-AAPV-OH) displayed a main degradation step of free peptide of 200 °C.
As to polycaprolactone [PCL], the “Air Permeability” value in series [6] was found to be 0.523 ± 0.057 L/min. In series [5], the “mass loss before main degradation step” value was less than 4%, the “temperature at which” value is “≈ 370 °C” and the “temperature range of main thermal degradation” value is 370-435 °C.
